Source: publication PMC8687465 (bioRxiv, 2023)

Test system: FLUV (A/WSN/33)
Type: cell-based, influenza A/WSN/33

For CCOC(=O)C1=C[C@@H](OC(CC)CC)[C@H](NC(C)=O)[C@@H](N)C1 [Oseltamivir], the “activity against FLUV after 7 passages with compound (resistance development)” value was “lost activity by passage 7”.
